Data from patent publication EP0908457B1, “3-(1,2-benzisothiazol- and isoxazol-5-Y1)-2,4(1H,3H)-pyrimidinedione or thione and 3-(1,2-benzisothiazol- and isoxazol-5-y1)-4(3H)-pyrimidinone or thione herbicidal agents” (BASF AKTIENGESELLSCHAFT, priority 1997, dated 1999).

Key:
Format in all cases: in vivo
Sagittaria pygmaea, L. = assay: Preemergence weed control under flooded paddy conditions, SAGPY (Arrowhead (Pygmaea)); conditions: flooded paddy; for SAGPY: preemergence weeds, herbicidal effect rating 0-9, three to four weeks after treatment; for SAGPY herbicidal rating: preemergence, rated three to four weeks after treatment
[1] = tested on: Monochoria vaginalis, Presl.; assay: Preemergence weed control under flooded paddy conditions, MOOVA (Monochoria); conditions: flooded paddy; for MOOVA: preemergence weeds, herbicidal effect rating 0-9, three to four weeks after treatment; for MOOVA herbicidal rating: preemergence, rated three to four weeks after treatment
[2] = tested on: Cyperus serotinus, Rottb.; assay: Preemergence weed control under flooded paddy conditions, CYPSE (Flatsedge); conditions: for CYPSE: preemergence weeds, herbicidal effect rating 0-9, three to four weeks after treatment; for CYPSE herbicidal rating: preemergence, rated three to four weeks after treatment
[3] = tested on: Echinochloa oryzoides (Ard.) Fritsch.; assay: Preemergence weed control under flooded paddy conditions, ECHORC (Watergrass (Calif.)); conditions: flooded paddy; for ECHORC: preemergence weeds, herbicidal effect rating 0-9, three to four weeks after treatment; for ECHORC herbicidal rating: preemergence, rated three to four weeks after treatment
Cyperus iria = assay: Preemergence weed control under flooded paddy conditions, CYPIR (Rice Flatsedge); conditions: flooded paddy; for CYPIR: preemergence weeds, herbicidal effect rating 0-9, three to four weeks after treatment; for CYPIR herbicidal rating: preemergence, rated three to four weeks after treatment

SMILES | SAGPY herbicidal rating (Sagittaria pygmaea, L.; 0.0320 kg/ha) | SAGPY herbicidal rating (Sagittaria pygmaea, L.; 0.0620 kg/ha) | SAGPY herbicidal rating (Sagittaria pygmaea, L.; 0.1250 kg/ha) | SAGPY herbicidal rating (Sagittaria pygmaea, L.; 0.2500 kg/ha) | MOOVA herbicidal rating ([1]; 0.0320 kg/ha) | MOOVA herbicidal rating ([1]; 0.0620 kg/ha) | MOOVA herbicidal rating ([1]; 0.1250 kg/ha) | MOOVA herbicidal rating ([1]; 0.2500 kg/ha) | CYPSE herbicidal rating ([2]; 0.0320 kg/ha) | CYPSE herbicidal rating ([2]; 0.1250 kg/ha) | CYPSE herbicidal rating ([2]; 0.2500 kg/ha) | ECHORC herbicidal rating ([3]; 0.0320 kg/ha) | ECHORC herbicidal rating ([3]; 0.0620 kg/ha) | ECHORC herbicidal rating ([3]; 0.1250 kg/ha) | ECHORC herbicidal rating ([3]; 0.2500 kg/ha) | CYPIR herbicidal rating (Cyperus iria; 0.0320 kg/ha) | CYPIR herbicidal rating (Cyperus iria; 0.0620 kg/ha) | CYPIR herbicidal rating (Cyperus iria; 0.1250 kg/ha) | CYPIR herbicidal rating (Cyperus iria; 0.2500 kg/ha) | CYPSE herbicidal rating ([2]; 0.0620 kg/ha) | further results
Cn1c(C(F)(F)F)cc(=O)n(-c2ccc3snc(COC(=O)Cc4ccc(Cl)cc4)c3c2)c1=O [Example 452, 2,4(1H,3H)-Pyrimidinedione, 3-[3-(hydroxymethyl)-1,2-benzisothiazol-5-yl]-1-methyl-6-(trifluoromethyl)-, (p-chlorophenyl)acetate (ester)] |  |  |  |  |  |  |  |  |  |  |  |  |  |  |  |  |  |  |  |  | SAGPY (Sagittaria pygmaea, L.; 0.0320 kg/ha): 0.0; SAGPY (Sagittaria pygmaea, L.; 0.0620 kg/ha): 0.0; SAGPY (Sagittaria pygmaea, L.; 0.1250 kg/ha): 0.0; SAGPY (Sagittaria pygmaea, L.; 0.2500 kg/ha): 2.0; MOOVA ([1]; 0.0320 kg/ha): 9.0; MOOVA ([1]; 0.0620 kg/ha): 9.0; MOOVA ([1]; 0.1250 kg/ha): 9.0; MOOVA ([1]; 0.2500 kg/ha): 9.0; CYPSE ([2]; 0.0320 kg/ha): 0.0; CYPSE ([2]; 0.2500 kg/ha): 7.0; ECHORC ([3]; 0.0320 kg/ha): 0.0; ECHORC ([3]; 0.0620 kg/ha): 3.0; ECHORC ([3]; 0.1250 kg/ha): 3.0; ECHORC ([3]; 0.2500 kg/ha): 7.0; CYPIR (Cyperus iria; 0.0320 kg/ha): 4.0; CYPIR (Cyperus iria; 0.0620 kg/ha): 6.0; CYPIR (Cyperus iria; 0.1250 kg/ha): 9.0; CYPIR (Cyperus iria; 0.2500 kg/ha): 9.0
COc1cccc(CC(=O)OCc2nsc3ccc(-n4c(=O)cc(C(F)(F)F)n(C)c4=O)cc23)c1 [Example 454, 2,4(1H,3H)-Pyrimidinedione, 3-[3-(hydroxymethyl)-1,2-benzisothiazol-5-yl]-1-methyl-6-(trifluoromethyl)-, (m-methoxyphenyl)acetate (ester)] |  |  |  |  |  |  |  |  |  |  |  |  |  |  |  |  |  |  |  |  | SAGPY (Sagittaria pygmaea, L.; 0.0320 kg/ha): 0.0; SAGPY (Sagittaria pygmaea, L.; 0.0620 kg/ha): 2.0; SAGPY (Sagittaria pygmaea, L.; 0.1250 kg/ha): 3.0; SAGPY (Sagittaria pygmaea, L.; 0.2500 kg/ha): 6.0; MOOVA ([1]; 0.0320 kg/ha): 2.0; MOOVA ([1]; 0.0620 kg/ha): 7.0; MOOVA ([1]; 0.1250 kg/ha): 9.0; MOOVA ([1]; 0.2500 kg/ha): 9.0; CYPSE ([2]; 0.0320 kg/ha): 0.0; CYPSE ([2]; 0.0620 kg/ha): 0.0; CYPSE ([2]; 0.1250 kg/ha): 4.0; CYPSE ([2]; 0.2500 kg/ha): 8.0; ECHORC ([3]; 0.0320 kg/ha): 3.0; ECHORC ([3]; 0.0620 kg/ha): 3.0; ECHORC ([3]; 0.1250 kg/ha): 6.0; ECHORC ([3]; 0.2500 kg/ha): 7.0; CYPIR (Cyperus iria; 0.0320 kg/ha): 0.0; CYPIR (Cyperus iria; 0.0620 kg/ha): 1.0; CYPIR (Cyperus iria; 0.1250 kg/ha): 6.0; CYPIR (Cyperus iria; 0.2500 kg/ha): 9.0
Cn1c(C(F)(F)F)cc(=O)n(-c2ccc3snc(C(C#N)=CC4CC4)c3c2)c1=O [Example 458, 1,2-Benzisothiazole-3-acetonitrile, alpha(cyclopropylmethylene)-5-[3,6-dihydro-3-methyl-2,6-dioxo-4-(trifluoromethyl)-1(2H)-pyrimidinyl]-, (E)- and (Z)-] |  |  |  |  |  |  |  |  |  |  |  |  |  |  |  |  |  |  |  |  | SAGPY (Sagittaria pygmaea, L.; 0.0320 kg/ha): 2.0; SAGPY (Sagittaria pygmaea, L.; 0.0620 kg/ha): 2.0; SAGPY (Sagittaria pygmaea, L.; 0.1250 kg/ha): 6.0; SAGPY (Sagittaria pygmaea, L.; 0.2500 kg/ha): 8.0; MOOVA ([1]; 0.0320 kg/ha): 4.0; MOOVA ([1]; 0.0620 kg/ha): 6.0; MOOVA ([1]; 0.1250 kg/ha): 9.0; MOOVA ([1]; 0.2500 kg/ha): 9.0; CYPSE ([2]; 0.0320 kg/ha): 2.0; ECHORC ([3]; 0.0320 kg/ha): 5.0; ECHORC ([3]; 0.0620 kg/ha): 6.0; ECHORC ([3]; 0.1250 kg/ha): 7.0; ECHORC ([3]; 0.2500 kg/ha): 8.0; CYPIR (Cyperus iria; 0.0320 kg/ha): 0.0; CYPIR (Cyperus iria; 0.0620 kg/ha): 4.0; CYPIR (Cyperus iria; 0.1250 kg/ha): 7.0; CYPIR (Cyperus iria; 0.2500 kg/ha): 7.0
Cn1c(C(F)(F)F)cc(=O)n(-c2ccc3snc(COC(=O)c4ccncc4)c3c2)c1=O [Example 463, 2,4(1H,3H)-Pyrimidinedione, 3-[3-(hydroxymethyl)-1,2-benzisothiazol-5-yl]-1-methyl-6-(trifluoromethyl)-, isonicotinate (ester)] | 0.0 | 3.0 | 5.0 | 7.0 | 7.0 | 9.0 | 9.0 | 9.0 | 2.0 | 6.0 | 7.0 | 2.0 | 6.0 | 9.0 | 9.0 | 5.0 | 6.0 | 9.0 | 9.0 |  | 
COC(CCOc1ccc(C)cc1-c1nsc2ccc(-n3c(=O)cc(C(F)(F)F)n(C)c3=O)cc12)OC [Example 467, Propionaldehyde, 3-{{2-[5-{3,6-dihydro-3-methyl-2,6-dioxo-4-(trifluoromethyl)-1(2H)-pyrimidinyl]-1,2-benzisothiazol-3-yl}-p-tolyl}oxy}-, 1-(dimethylacetal)] | 0.0 | 0.0 | 3.0 | 7.0 | 7.0 | 9.0 | 9.0 | 9.0 | 6.0 | 9.0 | 9.0 | 6.0 | 7.0 | 9.0 | 9.0 | 2.0 | 5.0 | 6.0 | 9.0 | 7.0 | 
COC(=O)COc1cc(C)c(I)cc1-c1nsc2ccc(-n3c(=O)cc(C(F)(F)F)n(C)c3=O)cc12 [Example 469, Acetic acid, {{6-{5-[3,6-dihydro-3-methyl-2,6-dioxo-4-(trifluoromethyl)-1(2H)-pyrimidinyl]-1,2-benzisothiazol-3-yl}-4-iodo-m-tolyl}oxy}-, methyl ester] | 0.0 | 1.5 | 2.5 | 3.0 | 2.0 | 4.5 | 5.0 | 8.0 | 0.0 | 9.0 | 6.0 | 7.0 | 9.0 | 9.0 | 9.0 | 0.0 | 1.5 | 6.5 | 7.0 | 4.5 | 
COC(=O)C(C)Oc1cc(C)c(I)cc1-c1nsc2ccc(-n3c(=O)cc(C(F)(F)F)n(C)c3=O)cc12 (centres unmarked) [Example 470, Propionic acid, 2-{{6-{5-[3,6-dihydro-3-methyl-2,6-dioxo-4-(trifluoromethyl)-1(2H)-pyrimidinyl]-1,2-benzisothiazol-3-yl}-4-iodo-m-tolyl}oxy}-, methyl ester] | 0.0 | 0.0 | 0.0 | 1.5 | 1.5 | 2.0 | 2.0 | 3.0 | 0.0 | 0.0 | 4.5 | 8.5 | 9.0 | 9.0 | 9.0 | 0.0 | 0.0 | 6.0 | 7.0 | 0.0 | 
CCC(C(=O)OCc1nsc2ccc(-n3c(=O)cc(C(F)(F)F)n(C)c3=O)cc12)c1ccccc1 (centres unmarked) [Example 473, 2,4(1H,3H)-Pyrimidinedione, 3-[3-(hydroxymethyl)-1,2-benzisothiazol-5-yl]-1-methyl-6-(trifluoromethyl)-, 2-phenylbutyrate (ester)] | 0.0 | 0.0 | 2.0 | 3.0 | 4.0 | 6.0 | 7.0 | 7.0 | 0.0 |  | 5.0 | 1.0 | 2.0 | 2.0 | 4.0 | 2.0 | 4.0 | 6.0 | 8.0 | 0.0 | 
Cn1c(C(F)(F)F)cc(=O)n(-c2ccc3snc(COC(=O)c4cc(Cl)nc(Cl)c4)c3c2)c1=O [Example 474, 2,4(1H,3H)-Pyrimidinedione, 3-[3-(hydroxymethyl)-1,2-benzisothiazol-5-yl]-1-methyl-6-(trifluoromethyl)-, 2,6-dichloroisonicotinate (ester)] | 0.0 | 0.0 | 0.0 | 0.0 | 2.0 | 3.0 | 7.0 | 9.0 | 0.0 | 0.0 | 0.0 | 0.0 | 0.0 | 0.0 | 0.0 | 2.0 | 5.0 | 4.0 | 6.0 | 0.0 | 
